Measured values taken from patent publication US20210317071A1, “PH-RESPONSIVE LIPIDS” (University of KwaZulu-Natal, priority 2016, published 2021).
In brackets after ≈: the same amount, converted by molar mass. Like-named read-outs stand apart in the source and are kept apart here.

Legend:
shaved rat skin = assay type: in vitro ADME, Wistar rats
Source text: All the experiments performed using animals were approved by Animal Research Ethics committee of the University of KwaZulu-Natal. In vivo study, the protocol was approved by Animal Research Ethics committee of the University of KwaZulu-Natal. The protocol approval numbers for in vivo skin infection model and transdermal permeation studies were AREC/104/015PD and AREC/054/14/Animal respectively. BALB/c mice and Wistar rats were used for in vivo skin infection model and transdermal permeation study respectively. Animals used in the study were procured from Biomedical Resource Unit of University of KwaZulu-Natal, Westville, Durban, South Africa.
All the intermediate, ester derivatives (MSAPE, MOAPE, MLAPE, MLLAPE, DSAPE, DOAPE, DLAPE, DLLAPE, TSAPE, TOAPE, TLAPE and TLLAPE) were evaluated as potential CPEs for transdermal drug delivery using tenofovir (TNF) as a model drug. The experiments were performed on shaved rat skin using Franz diffusion cells. TNF gels were prepared using hydroxypropyl methyl cellulose, milli-Q water and 1% w/w of compounds of formula 1. The permeability of TNF in the absence of enhancers was performed as a control. […] TNF was able to permeate the skin without any permeation enhancer with a steady state flux value 040.91±04.93 μg cm^−2 h^−1 (Table 6).

[1] = In-vitro VCM release from liposomes as a function of pH; assay type: physicochemical
Description: In-vitro drug release of VCM from the pH-responsive liposomes of the invention is illustrated in FIG. 6. At all-time intervals, VCM release at acidic pH (6.5) was higher than at physiological pH of 7.4. […] For further confirmation, the mean dissolution time (MDT 90%) for 90% of drug release was calculated from in-vitro release data. […] The MDT value is inversely proportional to the release rate, i.e. lower the MDT higher the release rate and vice versa. […] The higher drug release rate at the acidic environment from liposomes can be attributed to the alteration in the lipid bilayer orientation and permeability caused by conformational changes at the head group and hydrophobic tails of the PH-responsive lipid at low pH.

[2] = tested on: Staphylococcus aureus (SA); assay: In-vitro antibacterial activity, MIC by broth dilution; assay type: cell-based; conditions: S. aureus
Description: (§1) The minimum inhibitory concentration (MIC) values for VCM loaded liposomes were determined against Staphylococcus aureus (SA) and Methicillin-resistant Staphylococcus aureus (MRSA) using broth dilution method (Materials Science and Engineering: C, Volume 61, 2016, Pages 616-630). The stock bacterial cultures were grown in Mueller-Hinton Broth (MHB) 24 h before the test at 37° C.
(§2) Bacterial suspensions were prepared equal to 1.5×10^8 CFU ml^−1 as half mcFarland. Serial dilutions of VCM loaded liposomal formulations were prepared in MHB broth then added to the bacterial culture, mixed properly and incubated at 37° C. for 24 hours. […] The study continued for four days to determine the sustained release activity of encapsulated VCM. Experiments were performed in triplicate and drug-free liposomes, bare VCM solution and VCM loaded liposomes without Ph-responsive lipid were used as controls.

[3] = tested on: Methicillin-resistant Staphylococcus aureus (MRSA); assay: as above; assay type: cell-based
Description: as §1, §2

[4] = both pH values, study over four days
[5] = pH 6.5, DAY - I (24 h), listed as bare VCM
[6] = pH 7.4, DAY - I (24 h), listed as bare VCM

CCCCC/C=C\C/C=C\CCCCCCCC(=O)OCCNCCC(=O)OC(C)(C)C [MLAPE, 2-((3-(tert-butoxy)-3-oxopropyl)amino)ethyl (9Z,12Z)-octadeca-9,12-dienoate]
Cumulative amount of TNF permeated (shaved rat skin; Wistar, rat, 6 h, 1 % w/w): 574.97 ± 74.09 μg cm^−2 | ER (enhancement ratio) (shaved rat skin; Wistar, rat, 6 h, 1 % w/w): 2.25 | Permeability (P × 10^−2) of TNF (shaved rat skin; Wistar, rat, 6 h, 1 % w/w): 0.460 ± 0.06

CCCCCCCC/C=C/CCCCCCCC(=O)OCC(COC(=O)CCCCCCC/C=C/CCCCCCCC)(COC(=O)CCCCCCC/C=C/CCCCCCCC)NCCC(=O)OC(C)(C)C [TOAPE, 2-((3-(tert-butoxy)-3-oxopropyl)amino)-2-((((Z)-octadec-9-enoyl)oxy)methyl)propane-1,3-diyl(9Z,9′Z)-bis(octadec-9-enoate)]
Cumulative amount of TNF permeated (shaved rat skin; Wistar, rat, 6 h, 1 % w/w): 342.3 ± 26.94 μg cm^−2 | ER (enhancement ratio) (shaved rat skin; Wistar, rat, 6 h, 1 % w/w): 1.50 | Permeability (P × 10^−2) of TNF (shaved rat skin; Wistar, rat, 6 h, 1 % w/w): 0.306 ± 0.02

CCCCCCCCCCCCCCCCCC(=O)OCCNCCC(=O)OC(C)(C)C [MSAPE, 2-((3-(tert-butoxy)-3-oxopropyl)amino)ethyl stearate]
Cumulative amount of TNF permeated (shaved rat skin; Wistar, rat, 6 h, 1 % w/w): 407.12 ± 66.51 μg cm^−2 | ER (enhancement ratio) (shaved rat skin; Wistar, rat, 6 h, 1 % w/w): 1.55 | Permeability (P × 10^−2) of TNF (shaved rat skin; Wistar, rat, 6 h, 1 % w/w): 0.317 ± 0.06

CCCCCCCCCCCCCCCCCC(=O)OCC(COC(=O)CCCCCCCCCCCCCCCCC)NCCC(=O)OC(C)(C)C [DSAPE, 2-((3-(tert-butoxy)-3-oxopropyl)amino)propane-1,3-diyl distearate]
Cumulative amount of TNF permeated (shaved rat skin; Wistar, rat, 6 h, 1 % w/w): 336.1 ± 25.67 μg cm^−2 | ER (enhancement ratio) (shaved rat skin; Wistar, rat, 6 h, 1 % w/w): 1.40 | Permeability (P × 10^−2) of TNF (shaved rat skin; Wistar, rat, 6 h, 1 % w/w): 0.286 ± 0.02

CCCCCCCCCCCCCCCCCC(=O)OCC(COC(=O)CCCCCCCCCCCCCCCCC)(COC(=O)CCCCCCCCCCCCCCCCC)NCCC(=O)OC(C)(C)C [TSAPE, 2-((3-(tert-butoxy)-3-oxopropyl)amino)-2-((stearoyloxy)methyl) propane-1,3-diyl distearate]
Cumulative amount of TNF permeated (shaved rat skin; Wistar, rat, 6 h, 1 % w/w): 531.70 ± 23.87 μg cm^−2 | ER (enhancement ratio) (shaved rat skin; Wistar, rat, 6 h, 1 % w/w): 2.09 | Permeability (P × 10^−2) of TNF (shaved rat skin; Wistar, rat, 6 h, 1 % w/w): 0.428 ± 0.02

C[C@H](Cn1cnc2c(N)ncnc21)OCP(=O)(O)O [TNF, tenofovir, reference compound]
Cumulative amount of TNF permeated (shaved rat skin): 253.10±23.84 μg cm^−2

CCCCC/C=C\C/C=C\CCCCCCCC(=O)OCC(COC(=O)CCCCCCC/C=C\C/C=C\CCCCC)NCCC(=O)OC(C)(C)C [DLAPE, 2-((3-(tert-butoxy)-3-oxopropyl)amino)propane-1,3-diyl (9Z,9′Z,12Z,12′Z)-bis(octadeca-9,12-dienoate)]
Cumulative amount of TNF permeated (shaved rat skin; Wistar, rat, 6 h, 1 % w/w): 1074.62 ± 61.12 μg cm^−2 | ER (enhancement ratio) (shaved rat skin; Wistar, rat, 6 h, 1 % w/w): 3.95 | Permeability (P × 10^−2) of TNF (shaved rat skin; Wistar, rat, 6 h, 1 % w/w): 0.809 ± 0.05

CCCCCCCC/C=C\CCCCCCCC(=O)OCC(COC(=O)CCCCCCC/C=C\CCCCCCCC)NCCC(=O)OC(C)(C)C [DOAPE, 2-((3-(tert-butoxy)-3-oxopropyl)amino)propane-1,3-diyl dioleate]
Cumulative amount of TNF permeated (shaved rat skin; Wistar, rat, 6 h, 1 % w/w): 424.95 ± 59.84 μg cm^−2 | ER (enhancement ratio) (shaved rat skin; Wistar, rat, 6 h, 1 % w/w): 1.71 | Permeability (P × 10^−2) of TNF (shaved rat skin; Wistar, rat, 6 h, 1 % w/w): 0.350 ± 0.05

CC/C=C\C/C=C\C/C=C\CCCCCCCC(=O)OCC(COC(=O)CCCCCCC/C=C\C/C=C\C/C=C\CC)NCCC(=O)OC(C)(C)C [DLLAPE, 2-((3-(tert-butoxy)-3-oxopropyl)amino)propane-1,3-diyl (9Z,9′Z,12Z,12′Z,15Z,15′Z)-bis(octadeca-9,12,15-trienoate)]
Cumulative amount of TNF permeated (shaved rat skin; Wistar, rat, 6 h, 1 % w/w): 400.37 ± 18.92 μg cm^−2 | ER (enhancement ratio) (shaved rat skin; Wistar, rat, 6 h, 1 % w/w): 1.65 | Permeability (P × 10^−2) of TNF (shaved rat skin; Wistar, rat, 6 h, 1 % w/w): 0.337 ± 0.01

CCCCCCCC/C=C\CCCCCCCC(=O)OCCNCCC(=O)OC(C)(C)C [MOAPE, 2-((3-(tert-butoxy)-3-oxopropyl)amino)ethyl oleate]
Cumulative amount of TNF permeated (shaved rat skin; Wistar, rat, 6 h, 1 % w/w): 1594.06 ± 198.92 μg cm^−2 | ER (enhancement ratio) (shaved rat skin; Wistar, rat, 6 h, 1 % w/w): 5.58 | Permeability (P × 10^−2) of TNF (shaved rat skin; Wistar, rat, 6 h, 1 % w/w): 1.142 ± 0.16

CC/C=C\C/C=C\C/C=C\CCCCCCCC(=O)OCCNCCC(=O)OC(C)(C)C [MLLAPE, 2-((3-(tert-butoxy)-3-oxopropyl)amino)ethyl (9Z,12Z,15Z)-octadeca-9,12,15-trienoate]
Cumulative amount of TNF permeated (shaved rat skin; Wistar, rat, 6 h, 1 % w/w): 945.88 ± 44.93 μg cm^−2 | ER (enhancement ratio) (shaved rat skin; Wistar, rat, 6 h, 1 % w/w): 3.70 | Permeability (P × 10^−2) of TNF (shaved rat skin; Wistar, rat, 6 h, 1 % w/w): 0.758 ± 0.04

CN[C@H](CC(C)C)C(=O)N[C@H]1C(=O)N[C@@H](CC(N)=O)C(=O)N[C@H]2C(=O)N[C@H]3C(=O)N[C@H](C(=O)N[C@H](C(=O)O)c4cc(O)cc(O)c4-c4cc3ccc4O)[C@H](O)c3ccc(c(Cl)c3)Oc3cc2cc(c3O[C@@H]2O[C@H](CO)[C@@H](O)[C@H](O)[C@H]2O[C@H]2C[C@](C)(N)[C@H](O)[C@H](C)O2)Oc2ccc(cc2Cl)[C@H]1O [Bare VCM, Vancomycin]
MDT90% Mean dissolution time calculated for 90% of VCM release ([1]; pH 5.5): 6.064 h | MDT90% Mean dissolution time calculated for 90% of VCM release ([1]; pH 6.5): 4.173 h | MDT90% Mean dissolution time calculated for 90% of VCM release ([1]; pH 7.4): 2.690 h | time up to which antibacterial activity was exhibited [2, 4]: ≤ 24 h | MIC ([2]; pH 6.5, DAY - I (24 h)): 7.81 µg/mL (≈ 5.39 µM) | MIC [2, 5]: 1.95 µg/mL (≈ 1.35 µM) | MIC ([2]; pH 7.4, DAY - I (24 h)): 3.91 µg/mL (≈ 2.7 µM) | MIC [2, 6]: 8.79 µg/mL (≈ 6.07 µM) | time up to which antibacterial activity was exhibited [3, 4]: ≤ 24 h | MIC ([3]; pH 6.5, DAY - I (24 h)): 15.62 µg/mL (≈ 10.8 µM) | MIC [3, 5]: 0.98 µg/mL (≈ 0.676 µM) | MIC ([3]; pH 7.4, DAY - I (24 h)): 7.81 µg/mL (≈ 5.39 µM) | MIC [3, 6]: 0.98 µg/mL (≈ 0.676 µM)
